What is called EC50 is the concentration that produces a half-maximal response.

The values that follow come from patent publication US11787796B2, “Plasma Kallikrein inhibitors and uses thereof” (Takeda Pharmaceutical Company Limited, priority 2019, dated 2023).

Structures are written as SMILES.

Chain of human activated kallikrein enzyme (P03952 391-638): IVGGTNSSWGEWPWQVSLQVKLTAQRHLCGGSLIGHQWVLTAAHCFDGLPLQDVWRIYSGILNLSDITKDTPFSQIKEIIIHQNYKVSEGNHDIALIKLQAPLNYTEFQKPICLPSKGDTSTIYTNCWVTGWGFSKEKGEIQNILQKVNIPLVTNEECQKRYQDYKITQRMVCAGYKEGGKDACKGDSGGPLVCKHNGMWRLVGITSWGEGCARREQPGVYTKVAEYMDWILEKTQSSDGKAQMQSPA
Chain of human activated kallikrein enzyme (P03952 20-390 partner): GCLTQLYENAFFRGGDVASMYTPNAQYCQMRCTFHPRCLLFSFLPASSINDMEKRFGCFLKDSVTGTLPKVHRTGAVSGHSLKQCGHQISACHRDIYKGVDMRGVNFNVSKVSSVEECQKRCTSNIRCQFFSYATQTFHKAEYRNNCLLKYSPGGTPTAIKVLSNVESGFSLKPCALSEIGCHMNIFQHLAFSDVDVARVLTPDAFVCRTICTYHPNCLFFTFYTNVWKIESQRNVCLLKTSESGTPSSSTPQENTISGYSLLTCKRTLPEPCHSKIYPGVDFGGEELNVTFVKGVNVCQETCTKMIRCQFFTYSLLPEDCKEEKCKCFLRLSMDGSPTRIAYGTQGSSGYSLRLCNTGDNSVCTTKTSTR

In this test the target is human activated kallikrein enzyme (Homo sapiens (Human), UniProt P03952). Nature of the test: Plasma kallikrein inhibition assay with fluorogenic peptide substrate, 500 pM activated kallikrein format. As to conditions: 500 pM activated kallikrein; 300 uM Pro-Phe-Arg-7-amido-4-methylcoumarin substrate; 30 min preincubation, 10 min reaction at RT; read-out: Primary Dose Response Assay: Average EC50. It counts as biochemical. In a few lines:
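Human activated kallikrein (500 pM format) was preincubated 30 min at RT with inhibitor in 20 mM Tris pH 7.5, 150 mM NaCl, 1 mM EDTA, 0.1% PEG-400, 0.1% Triton X-100. Reactions then ran 10 min at RT with 300 uM Pro-Phe-Arg-AMC. Fluorescence was read at ex 380/em 460 nm.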
Take `COc1ccc(-n2cnnn2)c(CNC(=O)c2cn(Cc3cn4cc(C5CC5)cc(CC(C)(C)C(=O)O)c4n3)nn2)c1F` [Example I-81, 3-(6-cyclopropyl-2-((4-((2-fluoro-3-methoxy-6-(1H-tetrazol-1-yl)benzyl)carbamoyl)-1H-1,2,3-triazol-1-yl)methyl)imidazo[1,2-a]pyridin-8-yl)-2,2-dimethylpropanoic acid]: the EC50 was no more than 1 nM.
For the compound `COc1ccnc(CNC(=O)c2cnc3n2C(c2cn4cc(C5CC5)ccc4n2)CC3)c1F` (stereo not shown) [Example I-6, 5-(6-cyclopropylimidazo[1,2-a]pyridin-2-yl)-N-((3-fluoro-4-methoxypyridin-2-yl)methyl)-6,7-dihydro-5H-pyrrolo[1,2-a]imidazole-3-carboxamide], the half-maximal effective concentration (EC50) was greater than 7100 nM.
With `COc1ccc(Br)c(CNC(=O)c2cn(Cc3cn4cc(C5CC5)ccc4n3)nn2)c1F` [Example I-102, N-(6-bromo-2-fluoro-3-methoxybenzyl)-1-((6-cyclopropylimidazo[1,2-a]pyridin-2-yl)methyl)-1H-1,2,3-triazole-4-carboxamide], the concentration giving a half-maximal response (EC50) was 10 to 100 nM.
The figure for `O=C(NCCc1cccc(Br)c1)c1cnn(Cc2cn3cc(C4CC4)ccc3n2)c1` [Example I-132, N-(3-bromophenethyl)-1-((6-cyclopropylimidazo[1,2-a]pyridin-2-yl)methyl)-1H-pyrazole-4-carboxamide] is 100 to 2000 nM; for `O=C(NC1Cc2ccc(Cl)cc21)c1cn(Cc2cn3cc(C4CC4)ccc3n2)nn1` (stereo not shown) [Example I-151, N-(4-chlorobicyclo[4.2.0]octa-1(6),2,4-trien-7-yl)-1-((6-cyclopropylimidazo[1,2-a]pyridin-2-yl)methyl)-1H-1,2,3-triazole-4-carboxamide] it is 100 to 2000 nM; for `O=C(NCc1cc2c(cn1)CCCO2)c1cn(Cc2cn3cc(C4CC4)ccc3n2)nn1` [Example I-150, 1-((6-cyclopropylimidazo[1,2-a]pyridin-2-yl)methyl)-N-((3,4-dihydro-2H-pyrano[3,2-c]pyridin-7-yl)methyl)-1H-1,2,3-triazole-4-carboxamide] it is 100 to 2000 nM.
On to `O=S(=O)(NCc1c(-n2cnnn2)ccc(Cl)c1F)c1cn(Cc2cn3cc(C4CC4)ccc3n2)nn1` [Example I-30, N-(3-chloro-2-fluoro-6-(1H-tetrazol-1-yl)benzyl)-1-((6-cyclopropylimidazo[1,2-a]pyridin-2-yl)methyl)-1H-1,2,3-triazole-4-sulfonamide], for which the EC50 fell in the range of 100 to 2000 nM.
Consider `COc1ccc(-n2cnnn2)c(CNC(=O)c2cn(Cc3cn4cc(C5CC5)cc(-n5cnnc5)c4n3)nn2)c1F` [Example I-71, 1-((6-cyclopropyl-8-(4H-1,2,4-triazol-4-yl)imidazo[1,2-a]pyridin-2-yl)methyl)-N-(2-fluoro-3-methoxy-6-(1H-tetrazol-1-yl)benzyl)-1H-1,2,3-triazole-4-carboxamide], for which the EC50 is no more than 1 nM.
Turning to `COc1ccc(-n2cnnn2)c(CNC(=O)c2cn3c(n2)CCC3c2cn3cc(C4CC4)ccc3n2)c1F` (stereo not shown) [Example I-22, 5-(6-cyclopropylimidazo[1,2-a]pyridin-2-yl)-N-(2-fluoro-3-methoxy-6-(1H-tetrazol-1-yl)benzyl)-6,7-dihydro-5H-pyrrolo[1,2-a]imidazole-2-carboxamide], the EC50 was no more than 1 nM.
Regarding `O=C(NCc1c(-n2cnnn2)ccc(Br)c1F)c1cn(Cc2cn3cc(C4CC4)ccc3n2)nn1` [Example I-90, N-(3-bromo-2-fluoro-6-(1H-tetrazol-1-yl)benzyl)-1-((6-cyclopropylimidazo[1,2-a]pyridin-2-yl)methyl)-1H-1,2,3-triazole-4-carboxamide], the EC50 is no more than 1 nM.
Consider `COc1ccc(S(=O)(=O)N(C)C)c(CNC(=O)c2cn(Cc3cn4cc(C5CC5)ccc4n3)nn2)c1F` [Example I-57, 1-((6-cyclopropylimidazo[1,2-a]pyridin-2-yl)methyl)-N-(6-(N,N-dimethylsulfamoyl)-2-fluoro-3-methoxybenzyl)-1H-1,2,3-triazole-4-carboxamide], for which the EC50 was in the range of 1 to 10 nM.
For `COc1ccc(-n2cccn2)c(CNC(=O)c2cn(Cc3cn4cc(C5CC5)ccc4n3)nn2)c1F` [Example I-95, 1-((6-cyclopropylimidazo[1,2-a]pyridin-2-yl)methyl)-N-(2-fluoro-3-methoxy-6-(1H-pyrazol-1-yl)benzyl)-1H-1,2,3-triazole-4-carboxamide], the concentration for a half-maximal effect (EC50) is 1 to 10 nM.
Consider `O=C(NCc1ccc2[nH]cc(Cl)c2c1)c1cn(Cc2cn3cc(C4CC4)ccc3n2)nn1` [Example I-65, N-((3-chloro-1H-indol-5-yl)methyl)-1-((6-cyclopropylimidazo[1,2-a]pyridin-2-yl)methyl)-1H-1,2,3-triazole-4-carboxamide], for which the EC50 was 10 to 100 nM.
Take `CN1CCN(c2cc(C3CC3)cn3cc(Cn4cc(C(=O)NCc5nccc(OC(F)F)c5F)nn4)nc23)CC1` [Example I-153]: the 50% effective concentration (EC50) fell in the range of 1 to 10 nM.
`COc1ccc(-n2cnnn2)c(CNC(=O)c2cn(Cc3cn4cc(C5CC5)cc(F)c4n3)nn2)c1F` [Example I-99, 1-((6-cyclopropyl-8-fluoroimidazo[1,2-a]pyridin-2-yl)methyl)-N-(2-fluoro-3-methoxy-6-(1H-tetrazol-1-yl)benzyl)-1H-1,2,3-triazole-4-carboxamide]: the EC50 is no more than 1 nM.
In the case of `N#CNc1ccc(Cl)c(F)c1CNC(=O)c1cn(Cc2cn3cc(C4CC4)cc(CCC(=O)O)c3n2)nn1` [Example I-110, 3-(2-((4-((3-chloro-6-cyanamido-2-fluorobenzyl)carbamoyl)-1H-1,2,3-triazol-1-yl)methyl)-6-cyclopropylimidazo[1,2-a]pyridin-8-yl)propanoic Acid], the half-maximal effective concentration (EC50) lay within 1 to 10 nM.
Regarding `COc1ccc(-n2cnnn2)c(C(C)NC(=O)c2cn(Cc3cn4cc(C5CC5)ccc4n3)nn2)c1F` (stereo not shown) [Example I-31, 1-((6-cyclopropylimidazo[1,2-a]pyridin-2-yl)methyl)-N-(1-(2-fluoro-3-methoxy-6-(1H-tetrazol-1-yl)phenyl)ethyl)-1H-1,2,3-triazole-4-carboxamide], the EC50 fell in the range of 1 to 10 nM.
The figure for `COc1ccc(-n2cnnn2)c(CNC(=O)c2cc3n(n2)CCC3c2cn3cc(C4CC4)ccc3n2)c1F` (stereo not shown) [Example I-2, 4-(6-cyclopropylimidazo[1,2-a]pyridin-2-yl)-N-(2-fluoro-3-methoxy-6-(1H-tetrazol-1-yl)benzyl)-5,6-dihydro-41-pyrrolo[1,2-b]pyrazole-2-carboxamide] is 1 to 10 nM; for `O=C(NCc1csc2ccc(Cl)cc12)c1cnn(Cc2cn3cc(C4CC4)ccc3n2)c1` [Example I-128, N-((5-chlorobenzo[b]thiophen-3-yl)methyl)-1-((6-cyclopropylimidazo[1,2-a]pyridin-2-yl)methyl)-1H-pyrazole-4-carboxamide] it is 100 to 2000 nM; for `COc1ccc(-n2cnnn2)c(CNC(=O)c2cn(Cc3cn4cc(C5CC5)cc(C(O)C5COC5)c4n3)nn2)c1F` (stereo not shown) [Example I-27, 1-((6-cyclopropyl-8-(hydroxy(oxetan-3-yl)methyl)imidazo[1,2-a]pyridin-2-yl)methyl)-N-(2-fluoro-3-methoxy-6-(1H-tetrazol-1-yl)benzyl)-1H-1,2,3-triazole-4-carboxamide] it is no more than 1 nM.
Consider `O=C(NCc1cc2cc[nH]c2cn1)c1cn(Cc2cn3cc(C4CC4)ccc3n2)nn1` [Example I-144, N-((1H-pyrrolo[2,3-c]pyridin-5-yl)methyl)-1-((6-cyclopropylimidazo[1,2-a]pyridin-2-yl)methyl)-1H-1,2,3-triazole-4-carboxamide], for which the EC50 fell in the range of 1 to 10 nM.
Regarding `COc1ccc(-n2cnnn2)c(CN(C)C(=O)c2cn(Cc3cn4cc(C5CC5)ccc4n3)nn2)c1F` [Example I-66, 1-((6-cyclopropylimidazo[1,2-a]pyridin-2-yl)methyl)-N-(2-fluoro-3-methoxy-6-(1H-tetrazol-1-yl)benzyl)-N-methyl-1H-1,2,3-triazole-4-carboxamide], the EC50 is 100 to 2000 nM.
As for `COc1ccc(-n2cnnn2)c(CNC(=O)c2nnc(Cc3cn4cc(C5CC5)ccc4n3)o2)c1F` [Example I-94, 5-((6-cyclopropylimidazo[1,2-a]pyridin-2-yl)methyl)-N-(2-fluoro-3-methoxy-6-(1H-tetrazol-1-yl)benzyl)-1,3,4-oxadiazole-2-carboxamide], the EC50 was no more than 1 nM.
As for `CCOC(=O)c1cc(C2CC2)cn2cc(Cn3cc(C(=O)NCc4c(C)cc(C(=N)N)cc4C)nn3)nc12` [Example I-112, ethyl 2-((4-((4-carbamimidoyl-2,6-dimethylbenzyl)carbamoyl)-1H-1,2,3-triazol-1-yl)methyl)-6-cyclopropylimidazo[1,2-a]pyridine-8-carboxylate], the figure is no more than 1 nM; as for `Cc1cc(CN)cc(C)c1CNS(=O)(=O)c1cnn(Cc2cn3cc(C4CC4)ccc3n2)c1` [Example I-41, N-(4-(aminomethyl)-2,6-dimethylbenzyl)-1-((6-cyclopropylimidazo[1,2-a]pyridin-2-yl)methyl)-1H-pyrazole-4-sulfonamide], 2000 to 7100 nM; as for `O=S(=O)(NCCOc1ccccc1)c1cnn(Cc2cn3cc(C4CC4)ccc3n2)c1` [Example I-36, 1-((6-cyclopropylimidazo[1,2-a]pyridin-2-yl)methyl)-N-(2-phenoxyethyl)-1H-pyrazole-4-sulfonamide], greater than 7100 nM.
With `COc1ccnc(CNC(=O)c2cn(Cc3cn4cc(C5CC5)cc(N5CCN(C)CC5)c4n3)nn2)c1F` [Example I-139, 1-((6-cyclopropyl-8-(4-methylpiperazin-1-yl)imidazo[1,2-a]pyridin-2-yl)methyl)-N-((3-fluoro-4-methoxypyridin-2-yl)methyl)-1H-1,2,3-triazole-4-carboxamide], the EC50 was no more than 1 nM.
As for `O=S(=O)(NCc1ccc(Cl)cc1)c1cnn(Cc2cn3cc(C4CC4)ccc3n2)c1` [Example I-42, N-(4-chlorobenzyl)-1-((6-cyclopropylimidazo[1,2-a]pyridin-2-yl)methyl)-1H-pyrazole-4-sulfonamide], the figure is greater than 7100 nM.
